# ChEMBL document CHEMBL1833945, “Synthesis and anticonvulsant activity of new N-Mannich bases derived from 5-cyclopropyl-5-phenyl- and 5-cyclopropyl-5-(4-chlorophenyl)-imidazolidine-2,4-diones” (Bioorg Med Chem, 2011)
# Active and inactive are the calls of the source. The rule behind the calls is not given here.
# What was measured:
# [1] = Neurotoxicity in ip dosed CF1 albino mouse assessed as impair in motor coordination by rotarod test; format: toxicity, organism-based; conditions: in vivo
# Mus musculus [2] = assay: Anticonvulsant activity in CF1 albino mouse assessed as time to peak effect at 100 mg/kg, ip; format: functional; conditions: route intraperitoneal
# Rattus norvegicus [3] = assay: Neurotoxicity in Sprague-Dawley albino rat assessed as motor impairment at 30 mg/kg, po after 0.25 hrs by rotarod test; format: toxicity, organism-based; parameters: dose 30 mg/kg, route oral; conditions: in vivo
# Rattus norvegicus [4] = assay: Neurotoxicity in Sprague-Dawley albino rat assessed as motor impairment at 50 mg/kg, po after 2 hrs by rotarod test; format: toxicity, organism-based; parameters: dose 50 mg/kg, route oral; conditions: in vivo
# Rattus norvegicus [5] = assay: Neurotoxicity in Sprague-Dawley albino rat assessed as motor impairment at 50 mg/kg, po after 1 hrs by rotarod test; format: toxicity, organism-based; parameters: dose 50 mg/kg, route oral; conditions: in vivo
# Mus musculus [6] = assay: Neurotoxicity in CF1 albino mouse assessed as minimum dose causing loss of righting reflex at 300 mg/kg, ip after 4 hrs by rotarod test; format: toxicity, organism-based; parameters: dose 300 mg/kg, route intraperitoneal; conditions: in vivo
# Rattus norvegicus [7] = organism: Rattus norvegicus; assay: Protective index, ratio of TD50 for neurotoxicity in Sprague-Dawley albino rat to ED50 for inhibition of maximal electroshock-induced seizures in Sprague-Dawley albino rat; format: functional
# Rattus norvegicus [8] = assay: Neurotoxicity in Sprague-Dawley albino rat assessed as motor impairment at 30 mg/kg, po after 4 hrs by rotarod test; format: toxicity, organism-based; parameters: dose 30 mg/kg, route oral; conditions: in vivo
# Rattus norvegicus [9] = assay: Neurotoxicity in Sprague-Dawley albino rat assessed as motor impairment at 30 mg/kg, po after 2 hrs by rotarod test; format: toxicity, organism-based; parameters: dose 30 mg/kg, route oral; conditions: in vivo
# Rattus norvegicus [10] = assay: Anticonvulsant activity in po dosed Sprague-Dawley albino rat assessed as time to peak effect; format: functional
# Rattus norvegicus [11] = assay: Anticonvulsant activity in Sprague-Dawley albino rat assessed as protection against subcutaneous pentylenetetrazole-induced seizures at 50 mg/kg, po after 0.25 hrs; format: functional, organism-based; parameters: dose 50 mg/kg
# [12] = Neurotoxicity in oral dosed Sprague-Dawley albino rat assessed as motor impairment by rotarod test; format: toxicity, organism-based; conditions: in vivo
# Mus musculus [13] = assay: Anticonvulsant activity in ip dosed CF1 albino mouse assessed as protection against maximal electroshock-induced seizures after 4 hrs; format: functional; conditions: read-out: MED
# Rattus norvegicus [14] = assay: Anticonvulsant activity in Sprague-Dawley albino rat assessed as protection against subcutaneous pentylenetetrazole-induced seizures at 50 mg/kg, po after 2 hrs; format: functional, organism-based; parameters: dose 50 mg/kg
# Rattus norvegicus [15] = assay: Neurotoxicity in Sprague-Dawley albino rat assessed as motor impairment at 50 mg/kg, po after 4 hrs by rotarod test; format: toxicity, organism-based; parameters: dose 50 mg/kg, route oral; conditions: in vivo
# Rattus norvegicus [16] = assay: Anticonvulsant activity in po dosed Sprague-Dawley albino rat assessed as protection against maximal electroshock-induced seizures; format: functional
# Rattus norvegicus [17] = assay: Neurotoxicity in Sprague-Dawley albino rat assessed as motor impairment at 30 mg/kg, po after 1 hrs by rotarod test; format: toxicity, organism-based; parameters: dose 30 mg/kg, route oral; conditions: in vivo
# Rattus norvegicus [18] = assay: Anticonvulsant activity in Sprague-Dawley albino rat assessed as protection against subcutaneous pentylenetetrazole-induced seizures at 50 mg/kg, po after 0.5 hrs; format: functional, organism-based; parameters: dose 50 mg/kg
# Rattus norvegicus [19] = assay: Neurotoxicity in Sprague-Dawley albino rat assessed as motor impairment at 50 mg/kg, po after 0.5 hrs by rotarod test; format: toxicity, organism-based; parameters: dose 50 mg/kg, route oral; conditions: in vivo
# Mus musculus [20] = assay: Neurotoxicity in CF1 albino mouse assessed as loss of rotard grasping at 300 mg/kg, ip after 0.5 hrs by rotarod test; format: toxicity, organism-based; parameters: dose 300 mg/kg, route intraperitoneal; conditions: in vivo
# Mus musculus [21] = assay: Anticonvulsant activity in ip dosed CF1 albino mouse assessed as protection against subcutaneous pentylenetetrazole-induced seizures after 4 hrs; format: functional; conditions: read-out: MED
# Rattus norvegicus [22] = assay: Neurotoxicity in Sprague-Dawley albino rat assessed as motor impairment at 30 mg/kg, po after 0.5 hrs by rotarod test; format: toxicity, organism-based; parameters: dose 30 mg/kg, route oral; conditions: in vivo
# [23] = Lipophilicity, log P of compound; format: physicochemical; conditions: octanol/water
# Mus musculus [24] = assay: Anticonvulsant activity in ip dosed CF1 albino mouse assessed as protection against maximal electroshock-induced seizures after 0.5 hrs; format: functional; conditions: read-out: MED
# Rattus norvegicus [25] = assay: Neurotoxicity in Sprague-Dawley albino rat assessed as motor impairment at 50 mg/kg, po after 0.25 hrs by rotarod test; format: toxicity, organism-based; parameters: dose 50 mg/kg, route oral; conditions: in vivo
# Rattus norvegicus [26] = assay: Anticonvulsant activity in Sprague-Dawley albino rat assessed as protection against subcutaneous pentylenetetrazole-induced seizures at 50 mg/kg, po after 1 hrs; format: functional, organism-based; parameters: dose 50 mg/kg
# Mus musculus [27] = assay: Anticonvulsant activity in ip dosed CF1 albino mouse assessed as protection against subcutaneous pentylenetetrazole-induced seizures after 0.5 hrs; format: functional; conditions: read-out: MED
# Mus musculus [28] = assay: Toxicity in subcutaneous pentylenetetrazole-induced CF1 albino mouse assessed as myoclonic jerks at 300 mg/kg, ip after 0.5 hrs; format: organism-based; parameters: dose 300 mg/kg; conditions: in vivo, sc
# Mus musculus [29] = assay: Neurotoxicity in ip dosed CF1 albino mouse assessed as minimum dose required to cause impair in motor coordination after 0.5 hrs by rotarod test; format: toxicity, organism-based; conditions: in vivo
# Mus musculus [30] = assay: Toxicity in subcutaneous pentylenetetrazole-induced CF1 albino mouse assessed as myoclonic jerks at 100 mg/kg, ip after 4 hrs; format: organism-based; parameters: dose 100 mg/kg; conditions: in vivo, sc
# Mus musculus [31] = assay: Neurotoxicity in ip dosed CF1 albino mouse assessed as minimum dose required to cause impair in motor coordination after 4 hrs by rotarod test; format: toxicity, organism-based; conditions: in vivo
# Rattus norvegicus [32] = organism: Rattus norvegicus
# Description: Protective index, ratio of TD50 for neurotoxicity in Sprague-Dawley albino rat to ED50 for inhibition of subcutaneous pentylenetetrazole-induced seizures in Sprague-Dawley albino rat
# Rattus norvegicus [33] = assay: Anticonvulsant activity in Sprague-Dawley albino rat assessed as protection against subcutaneous pentylenetetrazole-induced seizures at 50 mg/kg, po after 4 hrs; format: functional, organism-based; parameters: dose 50 mg/kg
# Mus musculus [34] = assay: Anticonvulsant activity in CF1 albino mouse assessed as protection against maximal electroshock-induced seizures at 300 mg/kg, ip after 4 hrs; format: functional, organism-based; parameters: dose 300 mg/kg
# Mus musculus [35] = assay: Anticonvulsant activity in CF1 albino mouse assessed as protection against maximal electroshock-induced seizures at 300 mg/kg, ip after 0.5 hrs; format: functional, organism-based; parameters: dose 300 mg/kg
# Mus musculus [36] = assay: Neurotoxicity in CF1 albino mouse assessed as impair in motor coordination at 300 mg/kg, ip after 4 hrs by rotarod test; format: toxicity, organism-based; parameters: dose 300 mg/kg, route intraperitoneal; conditions: in vivo
# Mus musculus [37] = assay: Neurotoxicity in CF1 albino mouse assessed as impair in motor coordination at 300 mg/kg, ip after 0.5 hrs by rotarod test; format: toxicity, organism-based; parameters: dose 300 mg/kg, route intraperitoneal; conditions: in vivo
# Rattus norvegicus [38] = assay: Anticonvulsant activity in po dosed Sprague-Dawley albino rat assessed as protection against subcutaneous pentylenetetrazole-induced seizures; format: functional
# Rattus norvegicus [39] = assay: Anticonvulsant activity in Sprague-Dawley albino rat assessed as protection against maximal electroshock-induced seizures at 30 mg/kg, po after 4 hrs; format: functional, organism-based; parameters: dose 30 mg/kg
# Rattus norvegicus [40] = assay: Anticonvulsant activity in Sprague-Dawley albino rat assessed as protection against maximal electroshock-induced seizures at 30 mg/kg, po after 1 hrs; format: functional, organism-based; parameters: dose 30 mg/kg
# Rattus norvegicus [41] = assay: Anticonvulsant activity in Sprague-Dawley albino rat assessed as protection against maximal electroshock-induced seizures at 30 mg/kg, po after 0.25 hrs; format: functional, organism-based; parameters: dose 30 mg/kg
# Rattus norvegicus [42] = assay: Anticonvulsant activity in Sprague-Dawley albino rat assessed as protection against maximal electroshock-induced seizures at 30 mg/kg, po after 0.5 hrs; format: functional, organism-based; parameters: dose 30 mg/kg
# Rattus norvegicus [43] = assay: Anticonvulsant activity in Sprague-Dawley albino rat assessed as protection against maximal electroshock-induced seizures at 30 mg/kg, po after 2 hrs; format: functional, organism-based; parameters: dose 30 mg/kg
# Mus musculus [44] = assay: Anticonvulsant activity in CF1 albino mouse assessed as protection against electrically-induced seizure at 100 mg/kg, ip after 0.5 hrs by 6Hz psychomotor seizure test; format: functional, organism-based; parameters: dose 100 mg/kg
# Mus musculus [45] = assay: Neurotoxicity in CF1 albino mouse assessed as loss of rotard grasping at 300 mg/kg, ip after 4 hrs by rotarod test; format: toxicity, organism-based; parameters: dose 300 mg/kg, route intraperitoneal; conditions: in vivo
# Mus musculus [46] = assay: Anticonvulsant activity in ip dosed CF1 albino mouse assessed as protection against electrically-induced seizure by 6Hz psychomotor seizure test; format: functional
# Mus musculus [47] = assay: Anticonvulsant activity in CF1 albino mouse assessed as protection against electrically-induced seizure at 100 mg/kg, ip after 1 hrs by 6Hz psychomotor seizure test; format: functional, organism-based; parameters: dose 100 mg/kg
# Mus musculus [48] = assay: Anticonvulsant activity in CF1 albino mouse assessed as protection against electrically-induced seizure at 100 mg/kg, ip after 2 hrs by 6Hz psychomotor seizure test; format: functional, organism-based; parameters: dose 100 mg/kg
# Mus musculus [49] = assay: Neurotoxicity in CF1 albino mouse assessed as tremors at 300 mg/kg, ip after 0.5 hrs by rotarod test; format: toxicity, organism-based; parameters: dose 300 mg/kg, route intraperitoneal; conditions: in vivo
Structure (SMILES),Time (Mus musculus [2]) [h],Activity (Rattus norvegicus [3]),Activity (Rattus norvegicus [4]),Activity (Rattus norvegicus [5]),PI (Rattus norvegicus [7]),Activity (Rattus norvegicus [8]),Activity (Rattus norvegicus [9]),Time (Rattus norvegicus [10]) [h],Activity (Rattus norvegicus [11]),TD50 [12] [mg/kg],minimal effective dose (Mus musculus [13]) [mg/kg],Activity (Rattus norvegicus [15]),ED50 (Rattus norvegicus [16]) [mg/kg],Activity (Rattus norvegicus [19]),Activity (Mus musculus [20]),minimal effective dose (Mus musculus [21]) [mg/kg],logP [23],minimal effective dose (Mus musculus [24]) [mg/kg],Activity (Rattus norvegicus [25]),minimal effective dose (Mus musculus [27]) [mg/kg],also measured
CC[C@@H](C(N)=O)N1CCCC1=O,1,–,–,–,–,–,–,–,–,–,–,–,–,–,–,–,–,–,–,–,TD50 [1]: > 500 mg/kg
O=C1NC(c2ccccc2)(C2CC2)C(=O)N1CN1CCOCC1 (stereo not drawn),–,Non-toxic,Non-toxic,Non-toxic,<10.79,Non-toxic,Non-toxic,4,inactive,< 150,30,Non-toxic,13.9,Non-toxic,Toxic,300,1.33,100,Non-toxic,30,Activity (Mus musculus [6]): Toxic; Activity (Rattus norvegicus [14]): Active; Activity (Rattus norvegicus [17]): Non-toxic; Activity (Rattus norvegicus [18]): inactive; Activity (Rattus norvegicus [22]): Non-toxic; Activity (Rattus norvegicus [26]): inactive
O=C1NC(c2ccc(Cl)cc2)(C2CC2)C(=O)N1CN1CCN(CCc2ccccc2)CC1 (stereo not drawn),–,–,–,–,–,–,–,–,–,–,300,–,–,–,–,–,3.97,300,–,–,Activity (Mus musculus [28]): Toxic; MTC (Mus musculus [29]): 30 mg/kg; Activity (Mus musculus [30]): Toxic; MTC (Mus musculus [31]): 30 mg/kg
CCC1(C)CC(=O)NC1=O (stereo not drawn) [ETHOSUXIMIDE],–,–,Non-toxic,Non-toxic,–,–,–,2,inactive,> 500,–,Non-toxic,> 500,Non-toxic,–,300,–,–,Non-toxic,100,PI (Rattus norvegicus [32]): >3; Activity (Rattus norvegicus [33]): inactive; Activity (Mus musculus [34]): inactive; Activity (Mus musculus [35]): inactive; Activity (Mus musculus [36]): Non-toxic; Activity (Mus musculus [37]): Non-toxic
O=C1NC(=O)C(c2ccccc2)(C2CC2)N1 (stereo not drawn),2,Non-toxic,Non-toxic,Non-toxic,13.47,Non-toxic,Non-toxic,2,inactive,77.6,30,Non-toxic,5.76,Non-toxic,Toxic,100,1.66,30,Non-toxic,30,PI (Rattus norvegicus [32]): 1.35; ED50 (Rattus norvegicus [38]): 57.3 mg/kg; Activity (Rattus norvegicus [39]): Active; Activity (Rattus norvegicus [40]): Active; Activity (Rattus norvegicus [41]): Active; Activity (Rattus norvegicus [42]): Active; Activity (Rattus norvegicus [17]): Non-toxic; Activity (Rattus norvegicus [22]): Non-toxic; Activity (Rattus norvegicus [43]): Active; Activity (Mus musculus [44]): Active; Activity (Mus musculus [45]): Toxic; ED50 (Mus musculus [46]): 26.1 mg/kg; Activity (Mus musculus [47]): Active; Activity (Mus musculus [48]): Active
CCOC(=O)N1CCN(CN2C(=O)NC(c3ccccc3)(C3CC3)C2=O)CC1 (stereo not drawn),–,–,–,–,–,–,–,–,–,–,100,–,–,–,Toxic,300,1.76,100,–,100,Activity (Mus musculus [49]): Toxic; Activity (Mus musculus [45]): Toxic
